pIC50: −log10 of the molar value.
System: MV-4-11 cells
Test: Cell Viability Assay in MV-4-11 Cells
Type: cell-based
Conditions: Homo sapiens, MV4-11, 72 h, MV-4-11 cells, 72 h, Cell-Titer Glo; read-out: IC50
Procedure, shortened: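 MV-4-11 cells at 7,000/well in IMDM with 10% FBS, exposed to compound for 72 h. Viability by CellTiter-Glo luminescence, normalized to DMSO as 100%, fitted with a four-parameter curve.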

SMILES | pIC50
Cc1cccc2ccnc(N(C(=O)c3ccc(Nc4nccc(NCc5ccccn5)n4)cc3F)[C@@H]3CCCNC3)c12 [Example 695, (R)-2-fluoro-N-(8-methylisoquinolin-1-yl)-N-(piperidin-3-yl)-4-((4-((pyridin-2-ylmethyl)amino)pyrimidin-2-yl)amino)benzamide] | 6.89
Cc1cccc2ccnc(N(C(=O)c3ccc(Nc4nccc(NCc5cccnc5)n4)cc3F)[C@@H]3CCCNC3)c12 [Example 696, (R)-2-fluoro-N-(8-methylisoquinolin-1-yl)-N-(piperidin-3-yl)-4-((4-((pyridin-3-ylmethyl)amino)pyrimidin-2-yl)amino)benzamide] | 6.70
Cc1cccc2ccnc(N(C(=O)c3ccc(Nc4nccc(NCc5ccncc5)n4)cc3F)[C@@H]3CCCNC3)c12 [Example 697, (R)-2-fluoro-N-(8-methylisoquinolin-1-yl)-N-(piperidin-3-yl)-4-((4-((pyridin-4-ylmethyl)amino)pyrimidin-2-yl)amino)benzamide] | 6.70
CCc1nnc(-c2ccc(C(=O)N(c3nccc4scc(C)c34)[C@@H]3CCCNC3)c(F)c2)s1 [Example 698, (R)-4-(5-ethyl-1,3,4-thiadiazol-2-yl)-2-fluoro-N-(3-methylthieno[3,2-c]pyridin-4-yl)-N-(piperidin-3-yl)benzamide] | 6.77
Cc1nnc(-c2ccc(C(=O)N(c3nccc4scc(C)c34)[C@@H]3CCCNC3)c(F)c2)o1 [Example 699, (R)-2-fluoro-4-(5-methyl-1,3,4-oxadiazol-2-yl)-N-(3-methylthieno[3,2-c]pyridin-4-yl)-N-(piperidin-3-yl)benzamide] | 6.89
CCc1nnc(-c2ccc(C(=O)N(c3nccc4cc(Cl)cc(C)c34)[C@@H]3CCCNC3)c(F)c2)s1 [Example 700, (R)—N-(6-chloro-8-methylisoquinolin-1-yl)-4-(5-ethyl-1,3,4-thiadiazol-2-yl)-2-fluoro-N-(piperidin-3-yl)benzamide] | 6.68
Cc1cc(C)c2c(N(C(=O)c3ccc(-c4nnc(C)s4)cn3)[C@@H]3CCCNC3)nccc2c1 [Example 701, (R)—N-(6,8-dimethylisoquinolin-1-yl)-5-(5-methyl-1,3,4-thiadiazol-2-yl)-N-(piperidin-3-yl)picolinamide] | 6.82
Cc1cc(C)c2c(N(C(=O)c3ccc(-c4cn(C)nn4)cc3F)[C@@H]3CCCNC3)nccc2c1 [Example 702, (R)—N-(6,8-dimethylisoquinolin-1-yl)-2-fluoro-4-(1-methyl-1H-1,2,3-triazol-4-yl)-N-(piperidin-3-yl)benzamide] | 7.60
Cc1cc(C)c2c(N(C(=O)c3ccc(-c4cn(C)nn4)cn3)[C@@H]3CCCNC3)nccc2c1 [Example 703, (R)—N-(6,8-dimethylisoquinolin-1-yl)-5-(1-methyl-1H-1,2,3-triazol-4-yl)-N-(piperidin-3-yl)picolinamide] | 7.22
CCn1cc(-c2ccc(C(=O)N(c3nccc4scc(C)c34)[C@@H]3CCCNC3)c(F)c2)nn1 [Example 704, (R)-4-(1-ethyl-1H-1,2,3-triazol-4-yl)-2-fluoro-N-(3-methylthieno[3,2-c]pyridin-4-yl)-N-(piperidin-3-yl)benzamide] | 7.10
Cc1cc(-c2cn(C)nn2)ccc1C(=O)N(c1nccc2cccc(C)c12)C1CCCNC1 (stereo not shown) [Example 705, 2-methyl-4-(1-methyl-1H-1,2,3-triazol-4-yl)-N-(8-methylisoquinolin-1-yl)-N-(piperidin-3-yl)benzamide] | 6.29
COc1cc(C(=O)N(c2nccc3cc(Cl)cc(C)c23)[C@@H]2CCCNC2)ccc1-c1nnc(C)s1 [Example 706, (R)—N-(6-chloro-8-methylisoquinolin-1-yl)-3-methoxy-4-(5-methyl-1,3,4-thiadiazol-2-yl)-N-(piperidin-3-yl)benzamide] | 6.38
Cc1nnc(-c2ccc(C(=O)N(c3nccc4cc(Cl)cc(C)c34)[C@@H]3CCCNC3)cc2C)s1 [Example 707, (R)—N-(6-chloro-8-methylisoquinolin-1-yl)-3-methyl-4-(5-methyl-1,3,4-thiadiazol-2-yl)-N-(piperidin-3-yl)benzamide] | 6.33
Cc1nnc(-c2ccc(C(=O)N(c3nccc4cc(Cl)cc(C)c34)[C@@H]3CCCNC3)cc2F)s1 [Example 708, (R)—N-(6-chloro-8-methylisoquinolin-1-yl)-3-fluoro-4-(5-methyl-1,3,4-thiadiazol-2-yl)-N-(piperidin-3-yl)benzamide] | 6.80
Cc1nnc(-c2ccc(C(=O)N(c3nccc4cc(Cl)cc(C)c34)[C@@H]3CCCNC3)cn2)s1 [Example 709, (R)—N-(6-chloro-8-methylisoquinolin-1-yl)-6-(5-methyl-1,3,4-thiadiazol-2-yl)-N-(piperidin-3-yl)nicotinamide] | 7.10
COc1nnc(-c2ccc(C(=O)N(c3nccc4cc(F)cc(C)c34)[C@@H]3CCCNC3)c(F)c2)s1 [Example 710, 2-fluoro-N-(6-fluoro-8-methyl-1-isoquinolyl)-4-(5-methoxy-1,3,4-thiadiazol-2-yl)-N-[(3R)-3-piperidyl]benzamide] | 5.64

SMILES | pIC50
CCn1cc(-c2ccc(C(=O)N(c3nccc4cc(Cl)cc(C)c34)[C@@H]3CCCNC3)c(F)c2)nn1 [Example 711, N-(6-chloro-8-methyl-1-isoquinolyl)-4-(1-ethyltriazol-4-yl)-2-fluoro-N-[(3R)-3-piperidyl] benzamide] | 7.13
CCn1cc(-c2ccc(C(=O)N(c3nccc4cc(F)cc(C)c34)[C@@H]3CCCNC3)c(F)c2)nn1 [Example 712, 4-(1-ethyltriazol-4-yl)-2-fluoro-N-(6-fluoro-8-methyl-1-isoquinolyl)-N-[(3R)-3-piperidyl]benzamide] | 7.28
CCN1CCN(c2ccnc(Nc3ccc(C(=O)N(c4nccc5cccc(C)c45)[C@@H]4CCCNC4)c(F)c3)n2)CC1 [Example 713, (R)-4-((4-(4-ethylpiperazin-1-yl)pyrimidin-2-yl)amino)-2-fluoro-N-(8-methylisoquinolin-1-yl)-N-(piperidin-3-yl)benzamide] | 7.09
Cc1cccc2ccnc(N(C(=O)c3ccc(Nc4nccc(N5CCC(N(C)C)CC5)n4)cc3F)[C@@H]3CCCNC3)c12 [Example 714, (R)-4-((4-(4-(dimethylamino)piperidin-1-yl)pyrimidin-2-yl)amino)-2-fluoro-N-(8-methylisoquinolin-1-yl)-N-(piperidin-3-yl)benzamide] | 6.64
Cc1cccc2ccnc(N(C(=O)c3ccc(Nc4nccc(N5CCC(N6CCCC6)CC5)n4)cc3F)[C@@H]3CCCNC3)c12 [Example 715, (R)-2-fluoro-N-(8-methylisoquinolin-1-yl)-N-(piperidin-3-yl)-4-((4-(4-(pyrrolidin-1-yl)piperidin-1-yl)pyrimidin-2-yl)amino)benzamide] | 6.64
COC1CCN(c2ccnc(Nc3ccc(C(=O)N(c4nccc5cccc(C)c45)[C@@H]4CCCNC4)c(F)c3)n2)CC1 [Example 716, (R)-2-fluoro-4-((4-(4-methoxypiperidin-1-yl)pyrimidin-2-yl)amino)-N-(8-methylisoquinolin-1-yl)-N-(piperidin-3-yl)benzamide] | 7.47
Cc1cccc2ccnc(N(C(=O)c3ccc(Nc4nccc(N5CCC(O)CC5)n4)cc3F)[C@@H]3CCCNC3)c12 [Example 717, (R)-2-fluoro-4-((4-(4-hydroxypiperidin-1-yl)pyrimidin-2-yl)amino)-N-(8-methylisoquinolin-1-yl)-N-(piperidin-3-yl)benzamide] | 7.52
Cc1cccc2ccnc(N(C(=O)c3ccc(Nc4nccc(N5CCNCC5)n4)cc3F)[C@@H]3CCCNC3)c12 [Example 718, (R)-2-fluoro-N-(8-methylisoquinolin-1-yl)-4-((4-(piperazin-1-yl)pyrimidin-2-yl)amino)-N-(piperidin-3-yl)benzamide] | 6.74
Cc1cccc2ccnc(N(C(=O)c3ccc(Nc4nccc(N5CCC(=O)CC5)n4)cc3F)[C@@H]3CCCNC3)c12 [Example 719, (R)-2-fluoro-N-(8-methylisoquinolin-1-yl)-4-((4-(4-oxopiperidin-1-yl)pyrimidin-2-yl)amino)-N-(piperidin-3-yl)benzamide] | 7.85
Cc1cccc2ccnc(N(C(=O)c3ccc(Nc4nccc(-c5ccc(N)nc5)n4)cc3F)[C@@H]3CCCNC3)c12 [Example 720, (R)-4-((4-(6-aminopyridin-3-yl)pyrimidin-2-yl)amino)-2-fluoro-N-(8-methylisoquinolin-1-yl)-N-(piperidin-3-yl)benzamide] | 7.26
Cc1cccc2ccnc(N(C(=O)c3ccc(Nc4nccc(-c5ccc(O)cc5)n4)cc3F)[C@@H]3CCCNC3)c12 [Example 721, (R)-2-fluoro-4-((4-(4-hydroxyphenyl)pyrimidin-2-yl)amino)-N-(8-methylisoquinolin-1-yl)-N-(piperidin-3-yl)benzamide] | 6.85
Cc1cccc2ccnc(N(C(=O)c3ccc(Nc4nccc(-n5cncn5)n4)cc3F)[C@@H]3CCCNC3)c12 [Example 722, (R)-4-((4-(1H-1,2,4-triazol-1-yl)pyrimidin-2-yl)amino)-2-fluoro-N-(8-methylisoquinolin-1-yl)-N-(piperidin-3-yl)benzamide] | 6.80
Cc1cccc2ccnc(N(C(=O)c3ccc(Nc4nccc(-n5cccn5)n4)cc3F)[C@@H]3CCCNC3)c12 [Example 723, (R)-4-((4-(1H-pyrazol-1-yl)pyrimidin-2-yl)amino)-2-fluoro-N-(8-methylisoquinolin-1-yl)-N-(piperidin-3-yl)benzamide] | 7.09
Cc1cccc2ccnc(N(C(=O)c3ccc(Nc4nccc(-n5ccnc5)n4)cc3F)[C@@H]3CCCNC3)c12 [Example 724, (R)-4-((4-(1H-imidazol-1-yl)pyrimidin-2-yl)amino)-2-fluoro-N-(8-methylisoquinolin-1-yl)-N-(piperidin-3-yl)benzamide] | 7.25
Cc1nnc(-c2ccc(C(=O)N(c3nccc4cc(F)cc(C)c34)C3CCCNC3)cc2)s1 (stereo not shown) [Example 725, N-(6-fluoro-8-methyl-1-isoquinolyl)-4-(5-methyl-1,3,4-thiadiazol-2-yl)-N-(3-piperidyl)benzamide] | 6.68
